Results published in US9920032B2, “Heterocyclic compounds useful as pim kinase inhibitors” (Incyte Corporation, priority 2015, dated 2018).

Legend:
Assay type in all cases: biochemical
Pim-2 = Pim-2 (Homo sapiens (Human), UniProt Q9P1W9); assay: Pim-2 kinase assay; conditions: 1 mM ATP; read-out: PIM2 IC50
Description: Pim-2 kinase assay—20 μL reactions were run in white 384 well polystyrene plates dotted with 0.8 μL compound/DMSO in the assay buffer (50 mM Tris, pH 7.5, 0.01% Tween-20, 5 mM mgCl2, 0.01% BSA, 5 mM DTT), containing 0.05 μM Fluorescein-labeled CREBtide peptide substrate (Invitrogen PV3508), 1 mM ATP, and 1 nM enzyme (Invitrogen PV3649) for 2 h at 25° C. Reactions were stopped by addition of 10 μL TR-FRET Dilution Buffer (Invitrogen PV3574) with 30 mM EDTA and 1.5 nM LanthaScreen Tb-CREB pSer133 antibody (Invitrogen PV3566). After 30 min. incubation at room temperature, plates were read on a PHERAstar FS plate reader (BMG Labtech).

Pim-1 = Pim-1 (Homo sapiens (Human), UniProt P11309); assay: Pim-1 kinase assay; conditions: 1 mM ATP; read-out: PIM1 IC50
Description: (§1) Pim-1 and Pim-3 kinase assays—20 μL reactions were run in white 384 well polystyrene plates dotted with 0.8 μL compound/DMSO in the assay buffer (50 mM Tris, pH 7.5, 0.01% Tween-20, 5 mM mgCl2, 0.01% BSA, 5 mM DTT), containing 0.05 μM Biotin-labeled BAD peptide substrate (AnaSpec 62269), 1 mM ATP, and 2.5 pM (Pim-1, Invitrogen PV3503) or 1.25 pM (Pim-3, Millipore 14-738) enzyme for 1 h at 25° C. Reactions were stopped by addition of 10 μL STOP Buffer (150 mM Tris, pH=7.5, 150 mM NaCl, 75 mM EDTA, 0.01% Tween-20, 0.3% BSA,) supplemented with Phospho-Bad (Ser112) Antibody (Cell Signaling 9291) diluted 666-fold, and Streptavidin donor beads (PerkinElmer 6760002) along with Protein-A acceptor beads (PerkinElmer 6760137) at […]. Supplementation of the STOP buffer with beads and stopping the reactions were done under reduced light. Prior to the stopping reactions STOP buffer with beads was preincubated for 1 h in the dark at room temperature. After stopping the reactions, plates were incubated for 1 h in the dark at room temperature before reading on a PHERAstar FS plate reader (BMG Labtech) under reduced light.

Pim-3 = Pim-3 (Homo sapiens (Human), UniProt Q86V86); assay: Pim-3 kinase assay; conditions: 1 mM ATP; read-out: PIM3 IC50
Description: as §1

Chain of Pim-1 (P11309 whole entry): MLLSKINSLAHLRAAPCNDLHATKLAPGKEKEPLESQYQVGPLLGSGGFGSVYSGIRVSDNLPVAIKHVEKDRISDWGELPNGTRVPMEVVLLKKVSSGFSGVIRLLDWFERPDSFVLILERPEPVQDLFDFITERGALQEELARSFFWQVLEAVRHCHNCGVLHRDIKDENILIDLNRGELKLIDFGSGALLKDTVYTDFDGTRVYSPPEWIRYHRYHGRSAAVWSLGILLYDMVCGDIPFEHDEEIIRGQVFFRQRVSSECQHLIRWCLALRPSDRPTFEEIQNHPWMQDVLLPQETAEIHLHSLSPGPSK
Chain of Pim-2 (Q9P1W9 whole entry): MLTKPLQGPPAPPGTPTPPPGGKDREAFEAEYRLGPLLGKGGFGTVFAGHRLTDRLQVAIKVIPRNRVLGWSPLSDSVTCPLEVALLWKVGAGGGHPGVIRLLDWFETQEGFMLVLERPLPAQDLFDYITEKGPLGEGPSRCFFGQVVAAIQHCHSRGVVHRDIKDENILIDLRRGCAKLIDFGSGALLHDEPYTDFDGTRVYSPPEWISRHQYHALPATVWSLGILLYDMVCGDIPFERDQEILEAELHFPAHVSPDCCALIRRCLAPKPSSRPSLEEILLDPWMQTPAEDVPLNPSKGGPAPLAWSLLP

SMILES | IC50 (Pim-2) | IC50 (Pim-1) | IC50 (Pim-3)
COC1CCCN(c2cnc3c(C(=O)Nc4cnccc4[C@@H]4C[C@H](C)C[C@H](N)C4)ccc(F)c3c2)C1 (stereo in doubt) [Example 12, N-{4-[(1R,3S,5S)-3-Amino-5-methylcyclohexyl]pyridin-3-yl}-5-fluoro-3-[(3S)-3-methoxypiperidin-1-yl]quinoline-8-carboxamide] | 0.1 to 1 µM | ≤ 0.01 µM | ≤ 0.01 µM
CCc1cnc2c(C(=O)Nc3cnccc3[C@@H]3C[C@H](C)C[C@H](N)C3)ccc(F)c2c1 [Example 1, N-{4-[(1R,3S,5S)-3-Amino-5-methylcyclohexyl]pyridin-3-yl}-3-ethyl-5-fluoroquinoline-8-carboxamide] | 0.1 to 1 µM | ≤ 0.01 µM | ≤ 0.01 µM
C[C@@H]1C[C@H](N)C[C@H](c2ccncc2NC(=O)c2ccc(F)c3cc(N4CCC[C@@H](F)C4)cnc23)C1 [Example 2, N-{4-[(1R,3S,5S)-3-Amino-5-methylcyclohexyl]pyridin-3-yl}-5-fluoro-3-[(3,R)-3-fluoropiperidin-1-yl]quinoline-8-carboxamide] | ≤ 0.1 µM | ≤ 0.01 µM | ≤ 0.01 µM
C[C@@H]1C[C@H](N)C[C@H](c2ccncc2NC(=O)c2ccc(F)c3cc(N4CCCC4)cnc23)C1 [Example 3, N-{4-[(1R,3S,5S)-3-Amino-5-methylcyclohexyl]pyridin-3-yl}-5-fluoro-3-pyrrolidin-1-ylquinoline-8-carboxamide] | 0.1 to 1 µM | ≤ 0.01 µM | 0.01 to 0.05 µM
C[C@@H]1C[C@H](N)C[C@H](c2ccncc2NC(=O)c2ccc(F)c3cc(N4CCC4)cnc23)C1 [Example 4, N-{4-[(1R,3S,5S)-3-Amino-5-methylcyclohexyl]pyridin-3-yl}-3-azetidin-1-yl-5-fluoroquinoline-8-carboxamide] | 0.1 to 1 µM | ≤ 0.01 µM | 0.01 to 0.05 µM
C[C@@H]1C[C@H](N)C[C@H](c2ccncc2NC(=O)c2ccc(F)c3cc(N4CC[C@H](F)C4)cnc23)C1 [Example 5, N-{4-[(1R,3S,5S)-3-Amino-5-methylcyclohexyl]pyridin-3-yl}-5-fluoro-3-[(3S)-3-fluoropyrrolidin-1-yl]quinoline-8-carboxamide] | ≤ 0.1 µM | ≤ 0.01 µM | ≤ 0.01 µM
C[C@@H]1C[C@H](N)C[C@H](c2ccncc2NC(=O)c2ccc(F)c3cc(N4CC[C@@H](F)C4)cnc23)C1 [Example 6, N-{4-[(1R,3S,5S)-3-Amino-5-methylcyclohexyl]pyridin-3-yl}-5-fluoro-3-[(3R)-3-fluoropyrrolidin-1-yl]quinoline-8-carboxamide] | ≤ 0.1 µM | ≤ 0.01 µM | ≤ 0.01 µM
C[C@@H]1C[C@H](N)C[C@H](c2ccncc2NC(=O)c2ccc(F)c3cc(N4CC[C@H](C#N)C4)cnc23)C1 [Example 7, N-{4-[(1R,3S,5S)-3-Amino-5-methylcyclohexyl]pyridin-3-yl}-3-[(3S)-3-cyanopyrrolidin-1-yl]-5-fluoroquinoline-8-carboxamide] | ≤ 0.1 µM | ≤ 0.01 µM | ≤ 0.01 µM
C[C@@H]1C[C@H](N)C[C@H](c2ccncc2NC(=O)c2ccc(F)c3cc(N4CC[C@@H](C#N)C4)cnc23)C1 [Example 8, N-{4-[(1R,3S,5S)-3-Amino-5-methylcyclohexyl]pyridin-3-yl}-3-[(3R)-3-cyanopyrrolidin-1-yl]-5-fluoroquinoline-8-carboxamide] | ≤ 0.1 µM | ≤ 0.01 µM | ≤ 0.01 µM
C[C@@H]1C[C@H](N)C[C@H](c2ccncc2NC(=O)c2ccc(F)c3cc(N4CC(F)C4)cnc23)C1 [Example 9, N-{4-[(1R,3S,5S)-3-Amino-5-methylcyclohexyl]pyridin-3-yl}-5-fluoro-3-(3-fluoroazetidin-1-yl)quinoline-8-carboxamide] | 0.1 to 1 µM | ≤ 0.01 µM | ≤ 0.01 µM
C[C@@H]1C[C@H](N)C[C@H](c2ccncc2NC(=O)c2ccc(F)c3cc(N4CCOCC4)cnc23)C1 [Example 10, N-{4-[(1R,3S,5S)-3-Amino-5-methylcyclohexyl]pyridin-3-yl}-5-fluoro-3-morpholin-4-ylquinoline-8-carboxamide] | 0.1 to 1 µM | ≤ 0.01 µM | ≤ 0.01 µM
CO[C@H]1CCCN(c2cnc3c(C(=O)Nc4cnccc4[C@@H]4C[C@H](C)C[C@H](N)C4)ccc(F)c3c2)C1 [Example 11, N-{4-[(1R,3S,5S)-3-Amino-5-methylcyclohexyl]pyridin-3-yl}-5-fluoro-3-[(38)-3-methoxypiperidin-1-yl]quinoline-8-carboxamide] | 0.1 to 1 µM | ≤ 0.01 µM | ≤ 0.01 µM
C[C@@H]1C[C@H](N)C[C@H](c2ccncc2NC(=O)c2ccc(F)c3cc(C4CC4)cnc23)C1 [Example 13, N-{4-[(1R,3S,5S)-3-Amino-5-methylcyclohexyl]pyridin-3-yl}-3-cyclopropyl-5-fluoroquinoline-8-carboxamide] | ≤ 0.1 µM | ≤ 0.01 µM | ≤ 0.01 µM
C[C@@H]1C[C@H](N)C[C@H](c2ccncc2NC(=O)c2ccc(F)c3cc(C#CC4CC4)cnc23)C1 [Example 14, N-{4-[(1R,3S,5S)-3-Amino-5-methylcyclohexyl]pyridin-3-yl}-3-(cyclopropylethynyl)-5-fluoroquinoline-8-carboxamide] | 0.1 to 1 µM | ≤ 0.01 µM | ≤ 0.01 µM
C[C@@H]1C[C@H](N)C[C@H](c2ccncc2NC(=O)c2ccc(F)c3cc(-c4c(F)cccc4C#N)cnc23)C1 [Example 15, N-{4-[(1R,3S,5S)-3-Amino-5-methylcyclohexyl]pyridin-3-yl}-3-(2-cyano-6-fluorophenyl)-5-fluoroquinoline-8-carboxamide] | ≤ 0.1 µM | ≤ 0.01 µM | ≤ 0.01 µM
C[C@@H]1C[C@H](N)C[C@H](c2ccncc2NC(=O)c2ccc(F)c3cc(-c4ccccc4C#N)cnc23)C1 [Example 17, N-{4-[(1R,3S,5S)-3-Amino-5-methylcyclohexyl]pyridin-3-yl}-3-(2-cyanophenyl)-5-fluoroquinoline-8-carboxamide] | 0.1 to 1 µM | ≤ 0.01 µM | ≤ 0.01 µM
C[C@@H]1C[C@H](N)C[C@H](c2ccncc2NC(=O)c2ccc(F)c3cc(-c4c(F)cc(O)cc4F)cnc23)C1 [Example 18, N-{4-[(1R,3S,5S)-3-Amino-5-methylcyclohexyl]pyridin-3-yl}-3-(2,6-difluoro-4-hydroxyphenyl)-5-fluoroquinoline-8-carboxamide] | ≤ 0.1 µM | ≤ 0.01 µM | ≤ 0.01 µM
C[C@@H]1C[C@H](N)C[C@H](c2ccncc2NC(=O)c2ccc(F)c3cc(N(C)CC4CC4)cnc23)C1 [Example 19, N-{4-[(1R,3S,5S)-3-Amino-5-methylcyclohexyl]pyridin-3-yl}-3-[(cyclopropylmethyl)(methyl)amino]-5-fluoroquinoline-8-carboxamide] | 0.1 to 1 µM | ≤ 0.01 µM | ≤ 0.01 µM
CCN(C)c1cnc2c(C(=O)Nc3cnccc3[C@@H]3C[C@H](C)C[C@H](N)C3)ccc(F)c2c1 [Example 20, N-(4-((1R,3S,5S)-3-Amino-5-methylcyclohexyl)pyridin-3-yl)-3-(ethyl(methyl)amino)-5-fluoroquinoline-8-carboxamide] | ≤ 0.1 µM | ≤ 0.01 µM | ≤ 0.01 µM
C[C@@H]1C[C@H](N)C[C@H](c2ccncc2NC(=O)c2ccc(F)c3cc(N(C)CC(F)(F)F)cnc23)C1 [Example 21, N-{4-[(1R,3S,5S)-3-Amino-5-methylcyclohexyl]pyridin-3-yl}-5-fluoro-3-[methyl(2,2,2-trifluoroethyl)amino]quinoline-8-carboxamide] | ≤ 0.1 µM | ≤ 0.01 µM | ≤ 0.01 µM
C[C@@H]1C[C@H](N)C[C@H](c2ccncc2NC(=O)c2ccc(F)c3cc(N(C)CCF)cnc23)C1 [Example 22, N-{4-[(1R,3S,5S)-3-Amino-5-methylcyclohexyl]pyridin-3-yl}-5-fluoro-3-[(2-fluoroethyl)(methyl)amino]quinoline-8-carboxamide] | ≤ 0.1 µM | ≤ 0.01 µM | ≤ 0.01 µM
C[C@@H]1C[C@H](N)C[C@H](c2ccncc2NC(=O)c2ccc(F)c3cc(N(C)C4CCOC4)cnc23)C1 (stereo partly drawn) [Example 23, N-{4-[(1R,3S,5S)-3-Amino-5-methylcyclohexyl]pyridin-3-yl}-5-fluoro-3-[methyl(tetrahydrofuran-3-yl)amino]quinoline-8-carboxamide] | 0.1 to 1 µM | ≤ 0.01 µM | ≤ 0.01 µM
